# Assay results reported in patent US9695155B2, “Herbicidal substituted pyrimidinyloxy benzene compounds” (E. I. DU PONT DE NEMOURS AND COMPANY, priority 2013, dated 2017).
# What was measured:
# morningglory [1] = test: Test A preemergence; assay type: in vivo, Ipomoea spp.
# In short: (§1)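 Visual 0–100 rating (100 = complete control) taken about 10 d post-treatment relative to untreated checks. Preemergence: directed soil spray on sown loam/sand pots. Postemergence: seedlings 2–10 cm, 1–2 leaf. Non-phytotoxic solvent formulation with surfactant.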
# barnyardgrass [2] = test: Test A preemergence; assay type: in vivo, Echinochloa crus-galli
# In short: as §1
# corn [3] = test: Test A preemergence; assay type: in vivo, Zea mays
# In short: as §1
# velvetleaf [4] = test: Test A postemergence; assay type: in vivo, Abutilon theophrasti
# In short: as §1
# large (Lg) crabgrass [5] = test: Test A preemergence; assay type: in vivo, Digitaria sanguinalis
# In short: as §1
# sedge, umbrella = test: Test B flooded paddy test; assay type: in vivo, Cyperus difformis; details: Flood, 250 g ai/ha; 0 to 100 scale where 0 is no effect and 100 is complete control
# In short: (§2)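 Compound added straight to paddy water, with pots kept flooded 3 cm above soil, on plants grown to the 2-leaf stage. Visual scoring 0-100 (100 = complete control) against untreated controls after 13 to 15 greenhouse days.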
# pigweed [6] = test: Test A preemergence; assay type: in vivo, Amaranthus retroflexus
# In short: as §1
# giant foxtail [7] = test: Test A postemergence; assay type: in vivo, Setaria faberii
# In short: as §1
# Heteranthera limosa = test: Test B flooded paddy test; assay type: in vivo; details: Flood, 250 g ai/ha; 0 to 100 scale where 0 is no effect and 100 is complete control
# In short: as §2
# giant foxtail [8] = test: Test A preemergence; assay type: in vivo, Setaria faberii
# In short: as §1
# velvetleaf [9] = test: Test A preemergence; assay type: in vivo, Abutilon theophrasti
# In short: as §1
# wheat [10] = test: Test A preemergence; assay type: in vivo, Triticum aestivum
# In short: as §1
# barnyardgrass [11] = test: Test A postemergence; assay type: in vivo, Echinochloa crus-galli
# In short: as §1
# barnyardgrass [12] = test: Test B flooded paddy test; assay type: in vivo, Echinochloa crus-galli; details: Flood, 250 g ai/ha; 0 to 100 scale where 0 is no effect and 100 is complete control
# In short: as §2
# large (Lg) crabgrass [13] = test: Test A postemergence; assay type: in vivo, Digitaria sanguinalis
# In short: as §1
# rice = test: Test B flooded paddy test; assay type: in vivo, Oryza sativa; details: Flood, 250 g ai/ha; 0 to 100 scale where 0 is no effect and 100 is complete control
# In short: as §2
# morningglory [14] = test: Test A postemergence; assay type: in vivo, Ipomoea spp.
# In short: as §1
# corn [15] = test: Test A postemergence; assay type: in vivo, Zea mays
# In short: as §1
# wheat [16] = test: Test A postemergence; assay type: in vivo, Triticum aestivum
# In short: as §1
# pigweed [17] = test: Test A postemergence; assay type: in vivo, Amaranthus retroflexus
# In short: as §1
# [18] = 500 g ai/ha, 0 to 100 scale where 0 is no effect and 100 is complete control
# [19] = 125 g ai/ha, 0 to 100 scale where 0 is no effect and 100 is complete control
# [20] = 500 g ai/ha, 0 to 100 scale, 0 no effect, 100 complete control, approx. 10 days
# [21] = 500 g ai/ha, 0 to 100 scale, 0 no effect, 100 complete control
structure (smiles),measurement,setting,value
O=Cc1cccc(Oc2ncc(Br)cn2)c1-n1cc(Br)cn1 [Compound 230],Morningglory plant response rating (0 to 100 scale),morningglory [1]; 125 g ai/ha,0
same,Morningglory plant response rating,morningglory [1]; [18],0
same,"Barnyardgrass plant response rating (0 to 100 scale, 0 is no effect, 100 is complete control)",barnyardgrass [2]; 125 g ai/ha,0
same,Barnyardgrass plant response rating,barnyardgrass [2]; [18],0
same,Corn plant response rating (0 to 100 scale),corn [3]; 125 g ai/ha,0
same,Corn plant response rating,corn [3]; [18],0
same,Velvetleaf plant response rating,velvetleaf [4]; [19],0
same,"Plant response rating, Velvetleaf",velvetleaf [4]; [18],30
same,"Crabgrass, Large plant response rating (0 to 100 scale)",large (Lg) crabgrass [5]; 125 g ai/ha,0
same,"Crabgrass, Large plant response rating",large (Lg) crabgrass [5]; [18],0
same,"Plant response rating, Sedge, Umbrella","sedge, umbrella",50
same,Pigweed plant response rating (0 to 100 scale),pigweed [6]; 125 g ai/ha,0
same,Pigweed plant response rating,pigweed [6]; [18],70
same,"Foxtail, Giant plant response rating",giant foxtail [7]; [19],0
same,"Plant response rating, Foxtail, Giant",giant foxtail [7]; [18],20
same,"Plant response rating, Ducksalad",Heteranthera limosa,20
same,"Foxtail, Giant plant response rating (0 to 100 scale)",giant foxtail [8]; 125 g ai/ha,0
same,"Foxtail, Giant plant response rating",giant foxtail [8]; [18],0
same,Velvetleaf plant response rating (0 to 100 scale),velvetleaf [9]; 125 g ai/ha,0
same,Velvetleaf plant response rating,velvetleaf [9]; [18],0
same,Wheat plant response rating (0 to 100 scale),wheat [10]; 125 g ai/ha,0
same,Wheat plant response rating,wheat [10]; [18],0
same,Barnyardgrass plant response rating,barnyardgrass [11]; [19],0
same,"Plant response rating, Barnyardgrass",barnyardgrass [11]; [18],20
same,"Plant response rating, Barnyardgrass",barnyardgrass [12],20
same,"Crabgrass, Large plant response rating",large (Lg) crabgrass [13]; [19],0
same,"Plant response rating, Crabgrass, Large",large (Lg) crabgrass [13]; [18],10
same,"Plant response rating, Rice",rice,35
same,Morningglory plant response rating,morningglory [14]; [19],0
same,"Plant response rating, Morningglory",morningglory [14]; [18],0
same,Corn plant response rating,corn [15]; [19],0
same,"Plant response rating, Corn",corn [15]; [18],0
same,Wheat plant response rating,wheat [16]; [19],0
same,"Plant response rating, Wheat",wheat [16]; [18],0
same,Pigweed plant response rating,pigweed [17]; [19],30
same,"Plant response rating, Pigweed",pigweed [17]; [18],60
FC(F)(F)c1cnc(Oc2ccccc2-n2ccc(C(F)(F)F)n2)nc1 [Compound 4],Morningglory plant response rating,morningglory [1]; [19],0
same,Morningglory plant response rating,morningglory [1]; [20],0
same,Barnyardgrass plant response rating,barnyardgrass [2]; [19],0
same,Barnyardgrass plant response rating,barnyardgrass [2]; [20],0
same,Corn plant response rating,corn [3]; [19],0
same,Corn plant response rating,corn [3]; [20],0
same,"Plant response rating, Velvetleaf",velvetleaf [4]; [19],0
same,"Plant response rating, Velvetleaf",velvetleaf [4]; [21],0
same,"Crabgrass, Large plant response rating",large (Lg) crabgrass [5]; [19],0
same,"Crabgrass, Large plant response rating",large (Lg) crabgrass [5]; [20],0
same,"Plant response rating, Sedge, Umbrella","sedge, umbrella",0
same,Pigweed plant response rating,pigweed [6]; [19],0
same,Pigweed plant response rating,pigweed [6]; [20],0
same,"Plant response rating, Foxtail, Giant",giant foxtail [7]; [19],0
same,"Plant response rating, Foxtail, Giant",giant foxtail [7]; [21],0
same,"Plant response rating, Ducksalad",Heteranthera limosa,0
same,"Foxtail, Giant plant response rating",giant foxtail [8]; [19],0
same,"Foxtail, Giant plant response rating",giant foxtail [8]; [20],0
same,Velvetleaf plant response rating,velvetleaf [9]; [19],0
same,Velvetleaf plant response rating,velvetleaf [9]; [20],0
same,Wheat plant response rating,wheat [10]; [19],0
same,Wheat plant response rating,wheat [10]; [20],0
same,"Plant response rating, Barnyardgrass",barnyardgrass [11]; [19],0
same,"Plant response rating, Barnyardgrass",barnyardgrass [11]; [21],0
same,"Plant response rating, Barnyardgrass",barnyardgrass [12],0
same,"Plant response rating, Crabgrass, Large",large (Lg) crabgrass [13]; [19],0
same,"Plant response rating, Crabgrass, Large",large (Lg) crabgrass [13]; [21],0
same,"Plant response rating, Rice",rice,0
same,"Plant response rating, Morningglory",morningglory [14]; [19],0
same,"Plant response rating, Morningglory",morningglory [14]; [21],0
same,"Plant response rating, Corn",corn [15]; [19],0
same,"Plant response rating, Corn",corn [15]; [21],0
same,"Plant response rating, Wheat",wheat [16]; [19],0
same,"Plant response rating, Wheat",wheat [16]; [21],0
same,"Plant response rating, Pigweed",pigweed [17]; [19],0
same,"Plant response rating, Pigweed",pigweed [17]; [21],20
Brc1cnc(Oc2ccccc2-n2ccc(Br)n2)nc1 [Compound 20],"Plant response rating, Morningglory",morningglory [1]; [19],0
same,Morningglory plant response rating,morningglory [1]; [20],0
same,"Plant response rating, Barnyardgrass",barnyardgrass [2]; [19],0
same,Barnyardgrass plant response rating,barnyardgrass [2]; [20],20
same,"Plant response rating, Corn",corn [3]; [19],0
same,Corn plant response rating,corn [3]; [20],0
same,"Plant response rating, Velvetleaf",velvetleaf [4]; [19],20
same,"Plant response rating, Velvetleaf",velvetleaf [4]; [21],70
same,"Plant response rating, Crabgrass, Large",large (Lg) crabgrass [5]; [19],20
same,"Crabgrass, Large plant response rating",large (Lg) crabgrass [5]; [20],90
same,"Plant response rating, Sedge, Umbrella","sedge, umbrella",75
same,"Plant response rating, Pigweed",pigweed [6]; [19],30
same,Pigweed plant response rating,pigweed [6]; [20],90
same,"Plant response rating, Foxtail, Giant",giant foxtail [7]; [19],0
same,"Plant response rating, Foxtail, Giant",giant foxtail [7]; [21],60
same,"Plant response rating, Ducksalad",Heteranthera limosa,60
same,"Plant response rating, Foxtail, Giant",giant foxtail [8]; [19],20
same,"Foxtail, Giant plant response rating",giant foxtail [8]; [20],80
same,"Plant response rating, Velvetleaf",velvetleaf [9]; [19],0
same,Velvetleaf plant response rating,velvetleaf [9]; [20],0
same,"Plant response rating, Wheat",wheat [10]; [19],0
same,Wheat plant response rating,wheat [10]; [20],0
same,"Plant response rating, Barnyardgrass",barnyardgrass [11]; [19],0
same,"Plant response rating, Barnyardgrass",barnyardgrass [11]; [21],30
same,"Plant response rating, Barnyardgrass",barnyardgrass [12],20
same,"Plant response rating, Crabgrass, Large",large (Lg) crabgrass [13]; [19],0
same,"Plant response rating, Crabgrass, Large",large (Lg) crabgrass [13]; [21],30
same,"Plant response rating, Rice",rice,45
same,"Plant response rating, Morningglory",morningglory [14]; [19],40
same,"Plant response rating, Morningglory",morningglory [14]; [21],40
same,"Plant response rating, Corn",corn [15]; [19],0
same,"Plant response rating, Corn",corn [15]; [21],30
same,"Plant response rating, Wheat",wheat [16]; [19],0
same,"Plant response rating, Wheat",wheat [16]; [21],20
same,"Plant response rating, Pigweed",pigweed [17]; [19],80
same,"Plant response rating, Pigweed",pigweed [17]; [21],100
N#Cc1cccc(Oc2ncc(Br)cn2)c1-n1cc(Cl)cn1 [Compound 71],"Plant response rating, Morningglory",morningglory [1]; [19],90
same,Morningglory plant response rating,morningglory [1]; [20],90
same,"Plant response rating, Barnyardgrass",barnyardgrass [2]; [19],60
same,Barnyardgrass plant response rating,barnyardgrass [2]; [20],100
same,"Plant response rating, Corn",corn [3]; [19],30
same,Corn plant response rating,corn [3]; [20],40
same,"Plant response rating, Velvetleaf",velvetleaf [4]; [19],90
same,"Plant response rating, Velvetleaf",velvetleaf [4]; [18],100
same,"Plant response rating, Crabgrass, Large",large (Lg) crabgrass [5]; [19],100
same,"Crabgrass, Large plant response rating",large (Lg) crabgrass [5]; [20],100
same,"Plant response rating, Sedge, Umbrella","sedge, umbrella",70
same,"Plant response rating, Pigweed",pigweed [6]; [19],100
same,Pigweed plant response rating,pigweed [6]; [20],100
same,"Plant response rating, Foxtail, Giant",giant foxtail [7]; [19],80
same,"Plant response rating, Foxtail, Giant",giant foxtail [7]; [18],90
same,"Plant response rating, Ducksalad",Heteranthera limosa,0
same,"Plant response rating, Foxtail, Giant",giant foxtail [8]; [19],100
same,"Foxtail, Giant plant response rating",giant foxtail [8]; [20],100
same,"Plant response rating, Velvetleaf",velvetleaf [9]; [19],70
same,Velvetleaf plant response rating,velvetleaf [9]; [20],100
same,"Plant response rating, Wheat",wheat [10]; [19],20
same,Wheat plant response rating,wheat [10]; [20],40
same,"Plant response rating, Barnyardgrass",barnyardgrass [11]; [19],80
same,"Plant response rating, Barnyardgrass",barnyardgrass [11]; [21],90
same,"Plant response rating, Barnyardgrass",barnyardgrass [12],0
same,"Plant response rating, Crabgrass, Large",large (Lg) crabgrass [13]; [19],70
same,"Plant response rating, Crabgrass, Large",large (Lg) crabgrass [13]; [21],100
same,"Plant response rating, Rice",rice,30
same,"Plant response rating, Morningglory",morningglory [14]; [19],70
same,"Plant response rating, Morningglory",morningglory [14]; [18],90
same,"Plant response rating, Corn",corn [15]; [19],30
same,"Plant response rating, Corn",corn [15]; [21],60
same,"Plant response rating, Wheat",wheat [16]; [19],10
same,"Plant response rating, Wheat",wheat [16]; [18],40
same,"Plant response rating, Pigweed",pigweed [17]; [19],100
same,"Plant response rating, Pigweed",pigweed [17]; [18],100
